Key:
Format in all cases: functional, cell-based
[1] = target: T1, Multidrug resistance-associated protein 1 (Homo sapiens, UniProt P33527); experiment: TP_TRANSPORTER: increase in Vinblastine intracellular accumulation (Vinblastine: 0.05 uM, BiochaninA: 101 uM) in Panc-1 cells; settings: panc-1, 101 µM
[2] = target: T1, Multidrug resistance-associated protein 1; experiment: TP_TRANSPORTER: increase in Daunomycin intracellular accumulation (Daunomycin: 0.05 uM, BiochaninA: 100 uM) in Panc-1 cells; settings: panc-1, 100 µM
[3] = target: T1, Multidrug resistance-associated protein 1; experiment: TP_TRANSPORTER: increase in Vinblastine intracellular accumulation (Vinblastine: 0.05 uM, Chrysin: 100 uM) in Panc-1 cells; settings: panc-1, 100 µM
[4] = target: T1, Multidrug resistance-associated protein 1; experiment: TP_TRANSPORTER: increase in Daunomycin intracellular accumulation (Daunomycin: 0.05 uM, Chrysin: 100 uM) in Panc-1 cells; settings: panc-1, 100 µM
[5] = target: T1, Multidrug resistance-associated protein 1; experiment: TP_TRANSPORTER: increase in Daunomycin intracellular accumulation (Daunomycin: 0.05 uM, Genistein: 100 uM) in Panc-1 cells; settings: panc-1, 100 µM
[6] = target: T1, Multidrug resistance-associated protein 1; experiment: TP_TRANSPORTER: increase in Vinblastine intracellular accumulation (Vinblastine: 0.05 uM, Genistein: 100 uM) in Panc-1 cells; settings: panc-1, 100 µM
[7] = target: T1, Multidrug resistance-associated protein 1; experiment: TP_TRANSPORTER: increase in Vinblastine intracellular accumulation (Vinblastine: 0.05 uM, Morin: 100 uM) in Panc-1 cells; settings: panc-1, 100 µM
[8] = target: T1, Multidrug resistance-associated protein 1; experiment: TP_TRANSPORTER: increase in Daunomycin intracellular accumulation (Daunomycin: 0.05 uM, Morin: 100 uM) in Panc-1 cells; settings: panc-1, 100 µM
[9] = target: T1, Multidrug resistance-associated protein 1; experiment: TP_TRANSPORTER: increase in Daunomycin intracellular accumulation (Daunomycin: 0.05 uM, Phloretin: 100 uM) in PANC-1 cells; settings: panc-1, 100 µM
[10] = target: T1, Multidrug resistance-associated protein 1; experiment: TP_TRANSPORTER: increase in Vinblastine intracellular accumulation (Vinblastine: 0.05 uM, Phloretin: 100 uM) in PANC-1 cells; settings: panc-1, 100 µM
[11] = target: T1, Multidrug resistance-associated protein 1; experiment: TP_TRANSPORTER: increase in Daunomycin intracellular accumulation (Daunomycin: 0.05 uM, Silymarin: 100 uM) in Panc-1 cells; settings: panc-1, 100 µM
[12] = target: T1, Multidrug resistance-associated protein 1; experiment: TP_TRANSPORTER: increase in Vinblastine intracellular accumulation (Vinblastine: 0.05 uM, Silymarin: 100 uM) in Panc-1 cells; settings: panc-1, 100 µM

T1 sequence (P33527 whole entry): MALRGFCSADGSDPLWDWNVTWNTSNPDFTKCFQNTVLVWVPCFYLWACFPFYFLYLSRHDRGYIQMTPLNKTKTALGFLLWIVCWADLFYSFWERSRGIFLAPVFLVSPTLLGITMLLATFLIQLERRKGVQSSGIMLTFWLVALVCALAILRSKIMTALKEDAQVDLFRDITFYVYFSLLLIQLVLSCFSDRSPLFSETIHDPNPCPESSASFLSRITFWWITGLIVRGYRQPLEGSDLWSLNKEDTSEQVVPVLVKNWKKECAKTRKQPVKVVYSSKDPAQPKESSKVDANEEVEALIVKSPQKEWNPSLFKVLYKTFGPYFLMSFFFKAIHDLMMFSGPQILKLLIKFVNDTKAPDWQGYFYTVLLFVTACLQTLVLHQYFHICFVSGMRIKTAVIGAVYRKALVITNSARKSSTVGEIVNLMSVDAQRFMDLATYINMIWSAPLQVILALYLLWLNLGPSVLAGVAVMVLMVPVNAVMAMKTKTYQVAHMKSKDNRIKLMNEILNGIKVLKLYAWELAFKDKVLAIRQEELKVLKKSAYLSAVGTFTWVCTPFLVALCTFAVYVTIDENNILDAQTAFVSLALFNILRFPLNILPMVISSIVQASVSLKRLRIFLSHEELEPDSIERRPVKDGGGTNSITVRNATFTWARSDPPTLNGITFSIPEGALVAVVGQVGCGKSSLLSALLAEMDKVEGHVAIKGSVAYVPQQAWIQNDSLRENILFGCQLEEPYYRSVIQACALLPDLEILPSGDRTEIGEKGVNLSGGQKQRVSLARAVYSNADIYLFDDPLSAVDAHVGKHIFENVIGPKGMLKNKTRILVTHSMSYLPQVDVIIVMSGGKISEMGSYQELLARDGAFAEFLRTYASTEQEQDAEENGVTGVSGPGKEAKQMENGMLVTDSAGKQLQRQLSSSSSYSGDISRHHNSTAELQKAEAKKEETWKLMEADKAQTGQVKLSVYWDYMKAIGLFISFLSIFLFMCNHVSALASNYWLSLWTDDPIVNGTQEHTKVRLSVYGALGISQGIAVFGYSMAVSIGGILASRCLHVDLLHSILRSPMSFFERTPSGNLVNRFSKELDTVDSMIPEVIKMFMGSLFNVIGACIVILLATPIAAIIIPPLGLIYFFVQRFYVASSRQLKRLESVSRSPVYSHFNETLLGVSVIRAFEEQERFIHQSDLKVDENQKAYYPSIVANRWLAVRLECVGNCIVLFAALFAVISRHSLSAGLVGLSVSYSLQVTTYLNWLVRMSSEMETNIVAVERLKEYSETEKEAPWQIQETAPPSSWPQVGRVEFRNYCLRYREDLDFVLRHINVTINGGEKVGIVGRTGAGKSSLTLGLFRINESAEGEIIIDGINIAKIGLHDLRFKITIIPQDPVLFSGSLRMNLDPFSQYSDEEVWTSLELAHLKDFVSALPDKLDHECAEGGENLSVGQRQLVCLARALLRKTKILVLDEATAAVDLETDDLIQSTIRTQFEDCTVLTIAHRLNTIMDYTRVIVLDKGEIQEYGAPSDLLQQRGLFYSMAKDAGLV

With COc1ccc(-c2coc3cc(O)cc(O)c3c2=O)cc1 [BIOCHANIN] the Activity [1] was 330% and the Activity [2] was 178%.

O=c1cc(-c2ccccc2)oc2cc(O)cc(O)c12 [CHRYSIN] was tested, and the Activity [3] was 180% and the Activity [4] was 198%.

For O=c1c(-c2ccc(O)cc2)coc2cc(O)cc(O)c12 [GENISTEIN], the Activity [5] was 156% and the Activity [6] was 191%.

O=c1c(O)c(-c2ccc(O)cc2O)oc2cc(O)cc(O)c12 [MORIN] gave an Activity [7] of 553% and an Activity [8] of 546%.

O=C(CCc1ccc(O)cc1)c1c(O)cc(O)cc1O [PHLORETIN] was tested, and the Activity [9] was 295% and the Activity [10] was 251%.

Molecule SILYMARIN has an Activity [11] of 305% and an Activity [12] of 329%.
